# Source: patent EP0173664A2, “Biologically active benzimidazole compounds and process for their preparation” (priority 1984, dated 1986)
# System: isolated rabbit gastric glands
# Assay: Inhibiting effect in vitro on acid secretion in isolated rabbit gastric glands (14C-aminopyrine accumulation, histamine-stimulated)
# Type: cell-based
# Details: Oryctolagus cuniculus, 1 h; negative logarithm of concentration (in M) giving 50% inhibition of aminopyrine accumulation; glands incubated 60 min with 5x10^-5M histamine; read-out: Biological effect in glands pIC50 (converted)
# Procedure: Isolated rabbit gastric glands were prepared as described by Berglindh et al., Acta physiol. scand. 1976. 96. 150-159. This method involves vascular perfusion of the rabbit stomach via the gastric arteries, scraping and scissor mincing of the separated gastric mucosa and collagenase (0.1%, Type I, Sigma Chemicals, St. Louis, MO. USA) digestion at 37°C for 60-90 min. The glands are then harvested and filtered through nylon cloth to remove coarse fragments. The glands are thereafter incubated at 37°C in a medium containing NaCl 132.4 mM, KC1 5.4 mM, […], NaH2P04 1.0 mM, MgS04 1.2 mM, CaCl2 1.0 mM, glucose 10 mM, and 1 mg/ml rabbit albumine, pH 7.4.
# The acid secretion in the isolated gland preparation was recorded by measuring the uptake of ^14C-labelled aminopyrine into the glands as described by Berglindh et al., Acta physiol. scand. 1976. 97. 401-414. Accumulation of aminopyrine in the glands indicates gastric acid secretion within the glands. The standard medium contained 10^-6M ^14C-aminopyrine (Amersham, Great Britain). After the incubation period, the glands were centrifuged, the supernatant was removed and the glands dried, weighed and dissolved in Soluene -350 (Packard, IU. USA). Samples of the supernatant and glands were separately counted in a scintillation counter. The accumulation of ^14 C-labelled aminopyrine in the glands was calculated as detailed by Berglindh et al., Acta physiol. scand. 1976. 97. 403.
# Glands were incubated for 60 min. in the presence of 5x10^-5M histamine and the test compound to be studied. The free base of the test compound was dissolved in methanol. The final concentration of methanol was 1% in the incubation medium, having no influence on the aminopyrine accumulation ratio. For each test compound a complete dose-response curve was generated by testing doses in duplicate in the concentration range 10^-7M to 10-^4M.
row,IC50,Structure (SMILES)
1,631 nM,COc1ccc2[nH]c([S+]([O-])Cc3nccc(Oc4ccc(C)cc4)c3C)nc2c1 (centres unmarked) [Example 16]
2,631 nM,COc1ccc2[nH]c([S+]([O-])Cc3cc(Oc4ccc(C)cc4)c(C)cn3)nc2c1 (centres unmarked) [Example 18]
3,794 nM,"COc1ccc2[nH]c([S+]([O-])Cc3cc(Oc4ccc(C)cc4)ccn3)nc2c1 (centres unmarked) [Example 3, 5-methoxy-2-[[[4-(4-methylphenoxy)--2-pyridinyl]methyl]sulfinyl]-1H-benzimidazole]"

# Further lines, the compound ahead of its results:
row,Structure (SMILES),IC50
1,"CCc1cnc(C[S+]([O-])c2nc3cc(C)c(C)cc3[nH]2)cc1Oc1ccccc1 (centres unmarked) [Example 1, 5,6-dimethyl-2-[[(4-phenoxy-5--ethyl-2-pyridinyl)methyl]sulfinyl]-1H-benzimidazole]",1000 nM
2,COc1ccc2[nH]c([S+]([O-])Cc3cc(Oc4ccccc4)ccn3)nc2c1 (centres unmarked) [Example 10],1260 nM
3,COc1ccc2[nH]c([S+]([O-])Cc3cc(-c4ccccc4)ccn3)nc2c1 (centres unmarked) [Example 8],2510 nM
4,Cc1cc2nc([S+]([O-])Cc3cc(-c4ccccc4)ccn3)[nH]c2cc1C (centres unmarked) [Example 24],7940 nM
5,COc1ccc2[nH]c([S+]([O-])Cc3cc(OCc4ccccc4)c(C)cn3)nc2c1 (centres unmarked) [Example 22],79.4 nM
6,CCc1cnc(C[S+]([O-])c2nc3cc(OC)ccc3[nH]2)cc1OCc1ccccc1 (centres unmarked) [Example 26],794 nM
7,Cc1cc2nc([S+]([O-])Cc3cc(Oc4ccccc4)ccn3)[nH]c2cc1C (centres unmarked) [Example 12],316 nM
8,CCc1cnc(C[S+]([O-])c2nc3cc(OC)ccc3[nH]2)cc1Oc1ccccc1 (centres unmarked) [Example 6],316 nM
